Source: patent US5466671A, “Apidaecin-type peptide antibiotics with improved activities and/or different antibacterial spectrum” (priority 1994, dated 1995)
In brackets after ≈: the same amount, converted by molar mass. Residues, ends and D or L forms follow the SMILES beside them.

Experiments:
[1] = system: Morganella morganii; experiment: Inhibition zone assay (agar plate); type: cell-based; conditions: 50 nanomoles/well, 3 mm wells
[2] = system: Pseudomonas syringae; experiment: Inhibition zone assay (agar plate); type: cell-based; conditions: agar plate, 50 nanomoles/well, 3 mm wells
[3] = system: E. coli 25922; experiment: Minimal inhibitory concentration (liquid culture); conditions: inoculum 1100 CFU/ml; a-b = highest concentration with growth - lowest without growth
[4] = system: Agrobacterium tumefaciens; experiment: Inhibition zone assay (agar plate); type: cell-based; conditions: agar plate, 50 nanomoles/well, 3 mm wells
[5] = system: Y. enterocolitica; experiment: Minimal inhibitory concentration (liquid culture); conditions: inoculum 5000 CFU/ml; a-b = highest concentration with growth - lowest without growth
[6] = system: E. coli 11775; conditions: against 10^7 cells/ml, parental strain ATCC 11775; cited from earlier work
[7] = system: Rhizobium meliloti; experiment: Inhibition zone assay (agar plate); type: cell-based; conditions: 50 nanomoles/well, 3 mm wells
[8] = system: M. morganii; experiment: Minimal inhibitory concentration (liquid culture); conditions: inoculum 400 CFU/ml; a-b = highest concentration with growth - lowest without growth
[9] = system: E. coli Apid^R; conditions: cited from earlier work
[10] = system: Yersinia enterocolitica; experiment: Inhibition zone assay (agar plate); type: cell-based; conditions: 50 nanomoles/well, 3 mm wells
[11] = system: Enterobacter cloacae; experiment: Inhibition zone assay (agar plate); type: cell-based; conditions: agar plate, 50 nanomoles/well, 3 mm wells
[12] = system: Salmonella typhimurium; experiment: Inhibition zone assay (agar plate); type: cell-based; conditions: agar plate, 50 nanomoles/well, 3 mm wells
[13] = system: Erwinia amylovora; experiment: Inhibition zone assay (agar plate); type: cell-based; conditions: agar plate, 50 nanomoles/well, 3 mm wells
[14] = system: A. calcoaceticus; experiment: Minimal inhibitory concentration (liquid culture); conditions: inoculum 16 × 10^6 CFU/ml; a-b = highest concentration with growth - lowest without growth
[15] = system: E. coli 11775; experiment: Minimal inhibitory concentration (liquid culture); conditions: a-b = highest concentration with growth - lowest without growth
[16] = system: S. typhimurium; experiment: Minimal inhibitory concentration (liquid culture); conditions: inoculum 8 × 10^6 CFU/ml; a-b = highest concentration with growth - lowest without growth
[17] = system: Acinetobacter calcoaceticus; experiment: Inhibition zone assay (agar plate); type: cell-based; conditions: agar plate, 50 nanomoles/well, 3 mm wells
[18] = system: Haemophilus influenzae; experiment: Inhibition zone assay (agar plate); type: cell-based; conditions: 50 nanomoles/well, 3 mm wells
[19] = system: E. coli Apid^R; experiment: Minimal inhibitory concentration (liquid culture); type: cell-based; conditions: a-b = highest concentration with growth - lowest without growth
From the text: For details see `Experimental Procedures`.

[20] = system: E. coli 23802; experiment: Minimal inhibitory concentration (liquid culture); conditions: inoculum 5000 CFU/ml; a-b = highest concentration with growth - lowest without growth
[21] = system: Klebsiella pneumoniae; experiment: Inhibition zone assay (agar plate); type: cell-based; conditions: agar plate, 50 nanomoles/well, 3 mm wells
[22] = system: Escherichia coli (ATCC11775); experiment: Inhibition zone assay (agar plate); type: cell-based; conditions: agar plate, 50 nanomoles/well, 3 mm wells

## CC[C@H](C)[C@H](NC(=O)[C@H](Cc1ccc(O)cc1)NC(=O)[C@@H](NC(=O)[C@@H]1CCCN1C(=O)[C@H](CCCNC(=N)N)NC(=O)[C@H](CC(N)=O)NC(=O)[C@H](CC(N)=O)NC(=O)CN)C(C)C)C(=O)N1CCC[C@H]1C(=O)N[C@@H](CCC(N)=O)C(=O)N1CCC[C@H]1C(=O)N[C@@H](CCCNC(=N)N)C(=O)N1CCC[C@H]1C(=O)N1CCC[C@H]1C(=O)N[C@@H](Cc1c[nH]cn1)C(=O)N1CCC[C@H]1C(=O)N[C@@H](CCCNC(=N)N)C(=O)N[C@@H](CC(C)C)C(=O)O [Hb Ib, reference compound] (H-GNNRPVYIPQPRPPHPRL-OH)
[1]
  inhibition zone diameter (number of plus signs): + ((+) 5-6 mm)
[2]
  inhibition zone diameter (number of plus signs): ++++ ((++++) 15-19 mm)
[3]
  minimal inhibitory concentration (MIC): 0.5 to 1 µg/mL
[4]
  inhibition zone diameter (number of plus signs): +++++ ((+++++) 20 or more min)
[5]
  minimal inhibitory concentration (MIC): 1 to 5 µg/mL
[6]
  MIC value: 0.1 µg/mL (≈ 0.0474 µM)
[7]
  inhibition zone diameter (number of plus signs): +++++ ((+++++) 20 or more min)
[8]
  minimal inhibitory concentration (MIC): 1 to 5 µg/mL
[9]; 11775Apid^R vs ATCC 11775
  resistance of mutant relative to parental strain (higher apidaecin concentrations): approximately 500 fold
[9]; against 10^7 cells/ml, mutant strain 11775Apid^R
  MIC value: 50 µg/mL (≈ 23.7 µM)
[10]
  inhibition zone diameter (number of plus signs): +++ ((+++) 10-14 mm)
[11]
  inhibition zone diameter (number of plus signs): +++ ((+++) 10-14 mm)
[12]
  inhibition zone diameter (number of plus signs): +++ ((+++) 10-14 mm)
[13]
  inhibition zone diameter (number of plus signs): ++++ ((++++) 15-19 mm)
[14]
  minimal inhibitory concentration (MIC): 10 to 20 µg/mL
[15]; inoculum 16 × 10^6 CFU/ml
  minimal inhibitory concentration (MIC): 1 to 5 µg/mL
[15]; inoculum 1200 CFU/ml
  minimal inhibitory concentration (MIC): < 0.05 µg/mL
[16]
  minimal inhibitory concentration (MIC): 1 to 5 µg/mL
[17]
  inhibition zone diameter (number of plus signs): + ((+) 5-6 mm)
[18]
  inhibition zone diameter (number of plus signs): +++ ((+++) 10-14 mm)
[19]; inoculum 12 × 10^6 CFU/ml
  minimal inhibitory concentration (MIC): > 40 µg/mL
[19]; inoculum 1000 CFU/ml
  minimal inhibitory concentration (MIC): 20 to 40 µg/mL
[20]
  minimal inhibitory concentration (MIC): 10 to 20 µg/mL
[21]
  inhibition zone diameter (number of plus signs): +++ ((+++) 10-14 mm)
[22]
  inhibition zone diameter (number of plus signs): ++++ ((++++) 15-19 mm)
